The source made the active and inactive calls. The calls are words filed in the database; no cut-off is given here.
Assays:
[1] = AUC(0 to infinity) in CD1 mouse at 15 mg/kg, po measured upto 24 hrs by LC-MS analysis; format: ADME, organism-based; settings: in vivo
[2] = tested on: Mus musculus; test: Antidepressant activity in Kunming mouse assessed as effect on spontaneous locomotor activity by measuring total travel distance at 7.5 to 60 mg/kg, po administered for 60 mins and measured for 15 mins; format: functional, organism-based; settings: dose lower […], dose upper 60.0 mg/kg
[3] = molecular target: Histamine H2 receptor (Homo sapiens, UniProt P25021); test: Binding affinity to H2 receptor (unknown origin)
[4] = molecular target: Muscarinic acetylcholine receptor M2 (Homo sapiens, UniProt P08172); test: Binding affinity to M2 receptor (unknown origin)
[5] = molecular target: Muscarinic acetylcholine receptor M5 (Homo sapiens, UniProt P08912); test: Binding affinity to M5 receptor (unknown origin)
[6] = molecular target: Voltage-gated inwardly rectifying potassium channel KCNH2 (Homo sapiens, UniProt Q12809); test: Inhibition of human ERG expressed in HEK293 cells by whole-cell patch clamp method; format: toxicity, cell-based
[7] = molecular target: Sigma non-opioid intracellular receptor 1 (Homo sapiens, UniProt Q99720); test: Binding affinity to sigma 1 receptor (unknown origin)
[8] = Half-life in CD1 mouse at 15 mg/kg, po measured upto 24 hrs by LC-MS analysis; format: ADME, organism-based; settings: in vivo
[9] = molecular target: T1, 5-hydroxytryptamine receptor 2C (Homo sapiens) (UniProt P28335); test: Agonist activity at 5-HT2C in HEK293 cells at 10 uM incubated for 60 mins by FLIPR assay relative to control; format: functional, cell-based; settings: filed as agonist
T1 sequence (whole entry): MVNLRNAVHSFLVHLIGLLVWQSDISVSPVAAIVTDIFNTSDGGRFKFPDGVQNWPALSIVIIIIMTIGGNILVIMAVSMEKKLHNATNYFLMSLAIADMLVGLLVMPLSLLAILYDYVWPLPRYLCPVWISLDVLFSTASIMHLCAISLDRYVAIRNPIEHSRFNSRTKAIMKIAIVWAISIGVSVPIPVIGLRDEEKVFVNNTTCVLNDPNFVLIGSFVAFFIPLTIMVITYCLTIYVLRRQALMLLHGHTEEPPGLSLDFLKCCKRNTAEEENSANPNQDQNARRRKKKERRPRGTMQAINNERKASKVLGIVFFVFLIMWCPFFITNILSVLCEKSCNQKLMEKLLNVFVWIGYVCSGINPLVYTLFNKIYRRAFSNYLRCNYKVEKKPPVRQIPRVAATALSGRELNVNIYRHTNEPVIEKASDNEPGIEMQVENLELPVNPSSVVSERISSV

[10] = tested on: Rattus norvegicus; test: Antidepressant activity against ACTH-induced treatment resistant depression in Sprague-Dawley rat model assessed as reduction in immobility time at 20 to 40 mg/kg, IG by forced swimming test; format: functional, organism-based; settings: dose 20-40 mg/kg
[11] = Tmax in CD1 mouse at 2 mg/kg, iv measured upto 10 hrs by LC-MS analysis; format: ADME, organism-based; settings: in vivo
[12] = tested on: Mus musculus; test: Antidepressant activity in IG dosed Kunming mouse assessed as decrease in immobility time by measuring minimal effective dose by forced swimming test; format: functional
[13] = tested on: Mus musculus; test: Antidepressant activity in IG dosed Kunming mouse assessed as decrease in immobility time by measuring minimal effective dose by tail suspension test; format: functional
[14] = molecular target: Sodium-dependent serotonin transporter (Rattus norvegicus, UniProt P31652); test: Antagonist activity at rat cerebral cortex membrane SERT incubated for 10 mins in presence of [3H]5-HT; format: cell membranes
[15] = molecular target: T2, Alpha-1A adrenergic receptor (Rattus norvegicus, UniProt P43140); test: Displacement of [3H]-prazosin from adrenergic alpha-1 receptor in rat cerebral cortex incubated for 60 mins by liquid scintillation counting method; format: toxicity, tissue-based
T2 sequence (P43140 whole entry): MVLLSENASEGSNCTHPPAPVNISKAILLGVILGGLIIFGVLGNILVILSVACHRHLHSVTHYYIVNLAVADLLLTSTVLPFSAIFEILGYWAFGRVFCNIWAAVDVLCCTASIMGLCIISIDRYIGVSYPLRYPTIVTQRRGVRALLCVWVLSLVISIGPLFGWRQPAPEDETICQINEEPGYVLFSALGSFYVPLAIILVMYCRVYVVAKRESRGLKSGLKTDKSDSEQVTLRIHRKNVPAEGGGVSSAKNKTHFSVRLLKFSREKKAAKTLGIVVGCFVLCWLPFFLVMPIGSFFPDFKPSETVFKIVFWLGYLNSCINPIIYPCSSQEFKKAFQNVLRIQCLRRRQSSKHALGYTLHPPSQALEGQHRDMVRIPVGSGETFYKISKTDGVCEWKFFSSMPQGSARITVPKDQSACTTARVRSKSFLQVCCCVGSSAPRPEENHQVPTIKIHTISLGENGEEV

[16] = molecular target: Transporter (Rattus norvegicus, UniProt Q63380); test: Displacement of [3H]-nisoxetine from NET in rat hippocampal membrane incubated for 8 hrs by liquid scintillation counting method; format: cell membranes, Hippocampus
[17] = molecular target: 5-hydroxytryptamine receptor 2A (Homo sapiens, UniProt P28223); test: Antagonist activity at 5-HT2A in HEK293 cells incubated for 60 mins by FLIPR assay; format: cell-based
[18] = tested on: histamine H1 receptor; test: Displacement of [3H]-pyrilamine from H1 receptor in guinea pig cerebellum membrane incubated for 60 mins by liquid scintillation counting method; format: toxicity, cell membranes, Cavia porcellus; settings: probe [3H]-pyrilamine
[19] = molecular target: Sodium-dependent serotonin transporter (Rattus norvegicus) (UniProt P31652); test: Antagonist activity at rat cerebral cortex membrane SERT at 10 uM incubated for 10 mins in presence of [3H]5-HT relative to control; format: cell membranes; design: scale not given: the % may be the effect or the level left; settings: filed as antagonist
[20] = Acute toxicity in po dosed Sprague-Dawley rat assessed as mortality rate measured after 24 hrs; format: organism-based; settings: in vivo
[21] = tested on: Rattus norvegicus; test: Antidepressant activity against ig dosed ACTH-induced treatment resistant depression in Sprague-Dawley rat model assessed as reduction in immobility time by forced swimming test; format: functional; settings: po
[22] = tested on: Mus musculus; test: Antidepressant activity in Kunming mouse chronic unpredictable mild stress model assessed as increase in sucrose preference at 2 to 6 mg/kg, IG measured after 3 weeks; format: functional, organism-based; settings: dose 2-6 mg/kg
[23] = molecular target: 5-hydroxytryptamine receptor 2A (Rattus norvegicus, UniProt P14842); test: Displacement of [3H]-ketanserin from 5-HT2A in rat cerebral cortex incubated for 15 mins by liquid scintillation counting method; format: tissue-based
[24] = Half-life in CD1 mouse at 2 mg/kg, iv measured upto 10 hrs by LC-MS analysis; format: ADME, organism-based; settings: in vivo
[25] = tested on: Mus musculus; test: Antidepressant activity in Kunming mouse chronic unpredictable mild stress model assessed as increase in sucrose preference at 4 mg/kg, IG measured after 2 weeks; format: functional, organism-based
[26] = (§1) In vivo inhibition of 5-HT2A in po dosed DOI-induced Kunming mouse assessed as reduction in head twitch response pretreated for 60 mins followed by DOI induction and measured for 20 mins; format: functional; settings: 1.333 h, time 80 min
[27] = tested on: Mus musculus; test: as §1; format: functional; settings: time 80.0 min
[28] = MRTlast in CD1 mouse at 2 mg/kg, iv measured upto 10 hrs by LC-MS analysis; format: ADME, organism-based; settings: in vivo
[29] = Cmax in CD1 mouse at 2 mg/kg, iv measured upto 10 hrs by LC-MS analysis; format: ADME, organism-based; settings: in vivo

Chain of Sigma non-opioid intracellular receptor 1 (Q99720 whole entry): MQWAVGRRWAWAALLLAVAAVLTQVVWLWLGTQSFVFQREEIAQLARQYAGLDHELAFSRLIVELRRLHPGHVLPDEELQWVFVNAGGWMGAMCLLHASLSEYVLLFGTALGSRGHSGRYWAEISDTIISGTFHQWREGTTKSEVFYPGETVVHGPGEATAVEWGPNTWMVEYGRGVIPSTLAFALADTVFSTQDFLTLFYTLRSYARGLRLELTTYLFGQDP
Chain of Transporter (Q63380 whole entry): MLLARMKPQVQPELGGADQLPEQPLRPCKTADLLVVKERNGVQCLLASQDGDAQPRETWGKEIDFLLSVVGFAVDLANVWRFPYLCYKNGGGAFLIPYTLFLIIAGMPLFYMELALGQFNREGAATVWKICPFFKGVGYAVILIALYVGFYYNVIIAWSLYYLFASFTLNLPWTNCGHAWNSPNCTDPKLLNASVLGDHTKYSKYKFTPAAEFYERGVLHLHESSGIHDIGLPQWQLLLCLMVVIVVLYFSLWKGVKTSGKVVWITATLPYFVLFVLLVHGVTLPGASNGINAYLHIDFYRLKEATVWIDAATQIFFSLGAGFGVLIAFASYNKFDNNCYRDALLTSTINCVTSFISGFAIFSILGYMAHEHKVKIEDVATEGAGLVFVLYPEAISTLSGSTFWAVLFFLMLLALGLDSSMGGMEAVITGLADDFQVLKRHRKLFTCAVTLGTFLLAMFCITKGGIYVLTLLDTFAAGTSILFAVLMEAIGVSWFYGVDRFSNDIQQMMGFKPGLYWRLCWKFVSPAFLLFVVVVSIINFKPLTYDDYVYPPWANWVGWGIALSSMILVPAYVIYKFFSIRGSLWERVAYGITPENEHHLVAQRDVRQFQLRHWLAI
Chain of Muscarinic acetylcholine receptor M5 (P08912 whole entry): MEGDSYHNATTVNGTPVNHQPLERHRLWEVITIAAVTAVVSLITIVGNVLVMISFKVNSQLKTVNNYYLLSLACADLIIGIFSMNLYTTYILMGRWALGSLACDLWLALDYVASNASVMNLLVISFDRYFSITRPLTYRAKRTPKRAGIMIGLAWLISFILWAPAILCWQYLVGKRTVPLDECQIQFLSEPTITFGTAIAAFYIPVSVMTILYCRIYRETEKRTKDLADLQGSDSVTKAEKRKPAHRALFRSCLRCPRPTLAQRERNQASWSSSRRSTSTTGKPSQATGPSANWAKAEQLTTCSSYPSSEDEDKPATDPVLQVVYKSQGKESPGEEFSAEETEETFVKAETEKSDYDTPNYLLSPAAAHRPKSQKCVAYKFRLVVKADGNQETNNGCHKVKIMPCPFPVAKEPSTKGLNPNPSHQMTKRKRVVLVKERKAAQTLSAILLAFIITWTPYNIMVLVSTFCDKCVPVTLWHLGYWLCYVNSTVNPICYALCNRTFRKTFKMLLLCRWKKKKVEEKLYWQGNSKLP
Chain of 5-hydroxytryptamine receptor 2A (Rattus norvegicus, UniProt P14842) (P14842 whole entry): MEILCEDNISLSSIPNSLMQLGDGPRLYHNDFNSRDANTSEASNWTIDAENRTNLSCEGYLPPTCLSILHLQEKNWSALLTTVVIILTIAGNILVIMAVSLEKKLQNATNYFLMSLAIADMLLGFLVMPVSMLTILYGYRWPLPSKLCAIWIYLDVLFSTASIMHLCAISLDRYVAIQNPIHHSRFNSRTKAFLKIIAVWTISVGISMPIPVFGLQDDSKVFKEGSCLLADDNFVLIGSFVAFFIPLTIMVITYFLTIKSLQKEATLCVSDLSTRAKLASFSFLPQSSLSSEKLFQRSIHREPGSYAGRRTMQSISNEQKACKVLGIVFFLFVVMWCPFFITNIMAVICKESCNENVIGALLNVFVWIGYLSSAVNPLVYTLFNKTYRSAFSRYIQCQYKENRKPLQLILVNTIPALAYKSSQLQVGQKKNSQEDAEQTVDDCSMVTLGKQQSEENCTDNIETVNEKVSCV
Chain of Muscarinic acetylcholine receptor M2 (P08172 whole entry): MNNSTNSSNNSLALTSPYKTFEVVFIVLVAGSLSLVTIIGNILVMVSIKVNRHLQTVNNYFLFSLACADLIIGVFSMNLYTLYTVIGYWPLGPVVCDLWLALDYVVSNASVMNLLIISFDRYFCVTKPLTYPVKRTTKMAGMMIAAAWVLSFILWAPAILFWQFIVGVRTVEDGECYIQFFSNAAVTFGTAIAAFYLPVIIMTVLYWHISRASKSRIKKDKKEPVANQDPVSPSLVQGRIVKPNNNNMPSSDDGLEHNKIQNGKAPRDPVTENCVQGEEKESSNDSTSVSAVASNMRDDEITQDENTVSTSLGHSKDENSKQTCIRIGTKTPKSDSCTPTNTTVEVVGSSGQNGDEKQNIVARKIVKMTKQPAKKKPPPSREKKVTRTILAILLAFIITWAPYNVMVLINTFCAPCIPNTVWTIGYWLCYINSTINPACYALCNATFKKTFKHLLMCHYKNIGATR
Chain of 5-hydroxytryptamine receptor 2A (Homo sapiens, UniProt P28223) (P28223 whole entry): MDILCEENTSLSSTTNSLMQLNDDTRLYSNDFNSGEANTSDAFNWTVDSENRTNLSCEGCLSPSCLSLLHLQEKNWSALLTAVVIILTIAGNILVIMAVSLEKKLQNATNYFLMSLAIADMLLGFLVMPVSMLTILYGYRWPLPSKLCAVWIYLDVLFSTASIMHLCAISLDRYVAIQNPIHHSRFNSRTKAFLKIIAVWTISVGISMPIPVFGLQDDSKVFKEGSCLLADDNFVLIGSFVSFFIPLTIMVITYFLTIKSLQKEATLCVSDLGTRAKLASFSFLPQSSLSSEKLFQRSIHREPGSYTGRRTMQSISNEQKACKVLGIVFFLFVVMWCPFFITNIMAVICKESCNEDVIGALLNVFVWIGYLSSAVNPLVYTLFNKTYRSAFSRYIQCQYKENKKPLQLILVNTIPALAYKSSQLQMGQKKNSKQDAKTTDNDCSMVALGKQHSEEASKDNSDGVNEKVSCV
Chain of Voltage-gated inwardly rectifying potassium channel KCNH2 (Q12809 whole entry): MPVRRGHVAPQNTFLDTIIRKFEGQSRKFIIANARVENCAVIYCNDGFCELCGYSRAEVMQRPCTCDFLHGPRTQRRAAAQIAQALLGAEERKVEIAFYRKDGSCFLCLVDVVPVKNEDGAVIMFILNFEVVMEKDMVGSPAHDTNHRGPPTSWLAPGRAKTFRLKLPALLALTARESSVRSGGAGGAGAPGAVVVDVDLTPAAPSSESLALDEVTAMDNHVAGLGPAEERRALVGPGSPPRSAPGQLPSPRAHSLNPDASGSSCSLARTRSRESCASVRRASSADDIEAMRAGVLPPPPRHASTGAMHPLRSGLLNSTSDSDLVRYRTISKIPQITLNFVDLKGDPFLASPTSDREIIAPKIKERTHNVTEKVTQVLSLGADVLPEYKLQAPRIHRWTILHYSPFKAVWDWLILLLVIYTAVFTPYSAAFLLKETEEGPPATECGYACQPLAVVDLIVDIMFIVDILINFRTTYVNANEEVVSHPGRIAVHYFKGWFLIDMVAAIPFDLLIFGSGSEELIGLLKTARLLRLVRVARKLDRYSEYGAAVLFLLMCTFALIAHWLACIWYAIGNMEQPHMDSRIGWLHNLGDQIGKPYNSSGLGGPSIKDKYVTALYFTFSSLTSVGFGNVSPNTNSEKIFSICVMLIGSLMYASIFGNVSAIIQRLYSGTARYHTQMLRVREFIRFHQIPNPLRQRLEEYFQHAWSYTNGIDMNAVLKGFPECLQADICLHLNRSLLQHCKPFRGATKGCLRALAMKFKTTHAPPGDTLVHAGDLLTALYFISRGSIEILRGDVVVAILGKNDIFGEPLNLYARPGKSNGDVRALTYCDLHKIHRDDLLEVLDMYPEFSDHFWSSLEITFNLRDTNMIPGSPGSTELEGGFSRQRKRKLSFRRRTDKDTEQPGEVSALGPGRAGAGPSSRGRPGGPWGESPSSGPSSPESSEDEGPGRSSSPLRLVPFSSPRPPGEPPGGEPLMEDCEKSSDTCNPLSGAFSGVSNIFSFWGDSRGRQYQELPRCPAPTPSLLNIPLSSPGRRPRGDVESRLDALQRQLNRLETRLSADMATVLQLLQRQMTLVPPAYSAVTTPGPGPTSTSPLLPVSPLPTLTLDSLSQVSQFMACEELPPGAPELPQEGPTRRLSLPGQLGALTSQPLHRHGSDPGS
Chain of Sodium-dependent serotonin transporter (Rattus norvegicus) (P31652 whole entry): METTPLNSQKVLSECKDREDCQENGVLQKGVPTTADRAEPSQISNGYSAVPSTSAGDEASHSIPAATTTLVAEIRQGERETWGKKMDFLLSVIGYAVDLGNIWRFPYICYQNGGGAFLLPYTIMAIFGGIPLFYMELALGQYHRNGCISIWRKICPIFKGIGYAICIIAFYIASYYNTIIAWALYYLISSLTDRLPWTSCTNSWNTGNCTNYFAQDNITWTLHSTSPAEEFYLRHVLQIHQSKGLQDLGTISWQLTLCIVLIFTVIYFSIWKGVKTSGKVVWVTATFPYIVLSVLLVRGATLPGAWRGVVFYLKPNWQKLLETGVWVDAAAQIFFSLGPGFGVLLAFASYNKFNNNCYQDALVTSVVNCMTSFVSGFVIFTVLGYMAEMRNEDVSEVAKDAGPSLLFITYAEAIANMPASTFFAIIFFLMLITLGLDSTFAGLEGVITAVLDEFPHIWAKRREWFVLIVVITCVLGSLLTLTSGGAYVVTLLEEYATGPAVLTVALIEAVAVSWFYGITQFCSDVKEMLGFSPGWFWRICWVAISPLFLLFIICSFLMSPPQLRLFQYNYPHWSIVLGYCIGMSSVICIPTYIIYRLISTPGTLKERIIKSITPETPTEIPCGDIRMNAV
Chain of Histamine H2 receptor (P25021 whole entry): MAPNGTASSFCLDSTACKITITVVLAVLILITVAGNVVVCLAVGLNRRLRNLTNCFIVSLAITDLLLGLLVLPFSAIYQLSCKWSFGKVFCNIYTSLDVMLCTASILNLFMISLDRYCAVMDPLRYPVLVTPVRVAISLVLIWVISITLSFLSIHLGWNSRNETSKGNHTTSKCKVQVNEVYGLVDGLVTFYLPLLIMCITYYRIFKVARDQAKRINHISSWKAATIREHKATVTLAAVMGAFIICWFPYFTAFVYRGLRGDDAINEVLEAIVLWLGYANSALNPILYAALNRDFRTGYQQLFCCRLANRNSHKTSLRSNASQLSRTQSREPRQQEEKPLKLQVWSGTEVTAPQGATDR

With `CN(C)CC[C@@H](Oc1cccc2c1OCO2)c1ccc(F)cc1.O=C(O)C(=O)O` the AUC(0-inf) [1] was 474 ng·h/mL, the Activity [2] was “inactive” and the Ki [3] was > 1000 nM. The Ki [4] was > 1000 nM, the Ki [5] was > 1000 nM and the IC50 [6] was 1230 nM. The Ki [7] was > 1000 nM, the half-life [8] was 1.8 h and the Activity [9] was 18.1%. For the same molecule, the Activity [10] was “Active”, the Tmax [11] was 4.8 min and the Activity [12] was “Dose-dependent-effect”. The minimal effective dose ([12]; po, read-out: MED) was 6.4 mg/kg, the Activity [13] was “Dose-dependent-effect” and the minimal effective dose ([13]; po, read-out: MED) was 6.4 mg/kg. It also gave an IC50 [14] of 23.2 nM, a Ki [15] of 1450 nM and a Ki [16] of 2.3 nM. It also gave an IC50 [17] of 36.1 nM, a Ki at 60 min [18] of 1000 nM and an Activity [19] of 99.7%. The LD50 at 24 h [20] was 560 mg/kg, the ED50 [21] was 23.1 mg/kg and the Activity [22] was “Active”. For the same molecule, the Ki [23] was 26.4 nM, the half-life [24] was 1.2 h and the Activity [25] was “Active”. For the same molecule, the ED50 [26] was 1.07 mg/kg, the Activity [27] was “Dose-dependent-effect” and the MRT last at 10 h [28] was 1.1 h. It also gave a Cmax [29] of 420 ng/mL.
